ChEMBL document CHEMBL1134574, “Synthesis and characterization of non-steroidal ligands for the glucocorticoid receptor: selective quinoline derivatives with prednisolone-equivalent functional activity” (J Med Chem, 2001)

How the values were obtained:
[1] = molecular target: T1, Progesterone receptor (Homo sapiens, UniProt P06401); assay: Binding affinity for progesterone receptor
T1 sequence (P06401 whole entry): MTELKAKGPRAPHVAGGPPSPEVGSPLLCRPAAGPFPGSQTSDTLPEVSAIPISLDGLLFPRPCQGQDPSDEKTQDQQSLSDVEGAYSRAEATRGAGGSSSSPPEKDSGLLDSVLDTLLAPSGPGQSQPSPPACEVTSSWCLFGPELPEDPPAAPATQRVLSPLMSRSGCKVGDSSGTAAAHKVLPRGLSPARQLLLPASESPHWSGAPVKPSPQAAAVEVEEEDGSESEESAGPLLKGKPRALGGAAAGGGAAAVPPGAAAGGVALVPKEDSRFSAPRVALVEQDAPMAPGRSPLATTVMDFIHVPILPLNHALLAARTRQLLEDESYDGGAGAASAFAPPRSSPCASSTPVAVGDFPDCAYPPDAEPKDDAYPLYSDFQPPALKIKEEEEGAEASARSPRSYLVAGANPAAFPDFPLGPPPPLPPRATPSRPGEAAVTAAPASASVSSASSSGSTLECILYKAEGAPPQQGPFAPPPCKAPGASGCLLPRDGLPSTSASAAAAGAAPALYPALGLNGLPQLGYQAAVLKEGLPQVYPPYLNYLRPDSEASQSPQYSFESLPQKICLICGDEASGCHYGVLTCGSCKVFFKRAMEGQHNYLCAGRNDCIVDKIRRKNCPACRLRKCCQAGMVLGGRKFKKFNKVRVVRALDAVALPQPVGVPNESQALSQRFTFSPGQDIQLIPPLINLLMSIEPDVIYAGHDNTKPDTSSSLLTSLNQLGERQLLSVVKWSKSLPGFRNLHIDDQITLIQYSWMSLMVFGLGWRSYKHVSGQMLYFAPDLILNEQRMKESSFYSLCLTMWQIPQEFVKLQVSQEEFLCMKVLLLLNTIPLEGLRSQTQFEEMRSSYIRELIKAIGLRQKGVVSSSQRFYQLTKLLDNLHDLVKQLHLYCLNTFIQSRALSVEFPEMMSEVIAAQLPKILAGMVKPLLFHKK

[2] = molecular target: T2, Mineralocorticoid receptor (Homo sapiens, UniProt P08235); assay: Binding affinity for mineralocorticoid receptor
T2 sequence (P08235 whole entry): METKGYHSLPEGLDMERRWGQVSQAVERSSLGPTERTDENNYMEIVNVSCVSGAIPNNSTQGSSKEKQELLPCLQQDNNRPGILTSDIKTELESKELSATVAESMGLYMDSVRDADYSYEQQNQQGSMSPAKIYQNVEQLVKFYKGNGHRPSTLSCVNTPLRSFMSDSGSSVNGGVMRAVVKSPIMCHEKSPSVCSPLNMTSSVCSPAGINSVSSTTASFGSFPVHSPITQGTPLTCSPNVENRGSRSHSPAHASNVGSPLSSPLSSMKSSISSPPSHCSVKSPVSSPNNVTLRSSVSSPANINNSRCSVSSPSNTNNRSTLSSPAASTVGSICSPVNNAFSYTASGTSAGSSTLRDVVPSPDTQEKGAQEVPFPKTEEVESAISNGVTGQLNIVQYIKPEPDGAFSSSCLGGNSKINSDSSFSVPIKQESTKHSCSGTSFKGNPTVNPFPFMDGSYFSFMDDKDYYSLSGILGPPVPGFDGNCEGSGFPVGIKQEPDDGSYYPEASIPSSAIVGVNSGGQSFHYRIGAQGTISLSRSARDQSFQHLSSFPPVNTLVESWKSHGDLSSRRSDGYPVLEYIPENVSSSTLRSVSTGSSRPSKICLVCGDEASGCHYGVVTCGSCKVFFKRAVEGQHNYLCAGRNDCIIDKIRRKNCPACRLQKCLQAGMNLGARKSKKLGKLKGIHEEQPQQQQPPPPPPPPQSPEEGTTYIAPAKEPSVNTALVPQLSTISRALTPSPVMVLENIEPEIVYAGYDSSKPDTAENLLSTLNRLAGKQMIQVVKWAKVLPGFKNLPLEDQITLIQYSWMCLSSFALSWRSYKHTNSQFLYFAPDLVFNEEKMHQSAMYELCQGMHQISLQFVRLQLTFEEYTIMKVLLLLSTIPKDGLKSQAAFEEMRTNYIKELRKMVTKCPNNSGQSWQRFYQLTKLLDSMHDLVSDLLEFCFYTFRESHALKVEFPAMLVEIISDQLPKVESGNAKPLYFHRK

[3] = molecular target: Estrogen receptor (Homo sapiens, UniProt Q92731+P03372); assay: Binding affinity for estrogen receptor; type: protein assay

- Ki [1]: > 5 µM
- Ki [2]: 3.84 µM
- Ki [3]: > 1 µM
SMILES: COc1cccc2c1-c1ccc3c(c1C(c1cccc(OCSC)c1)O2)C(C)=CC(C)(C)N3 (stereo not drawn)
